Results on twelve compounds are retold here after patent US10343991B2, “C5, C6 substituted and/or fused oxindoles as anti-cancer agents and process for preparation thereof” (Council of Scientific & Industrial Research, priority 2016, dated 2019).

For one data set, the system named is DU-145 cells. The data set is described as follows: SRB assay, cell viability. The following applies: Homo sapiens, 48 h, average of three experiments, read-out: DU145 Cell Viability at 10 μM. It counts as cell-based. Here is the method:
(§1) In order to determine the anticancer potency, the synthesized oxindole derivatives were evaluated for anti-cancer activity various different human cancer cell lines, Leukemic Cancer (THP1), human breast cancer (MDA-MB-231 and MCF-7), human cervix carcinoma cells (HeLa), prostate cancer (DU-145) cellS by using standard Trypan blue and SRB assays. The preliminary anticancer activity for all the synthesized compounds was done at 10 μM concentration and cell inhibition was determined. […] The experiment was repeated thrice and the average values were taken.
(§2) The assay was carried out in a 24 well flat-bottomed microtiter tissue culture plate. Cells were seeded in the plates with a density of 4×10^4 cells/well (counted by tryphan blue exclusion dye method). After 24 hours media was replaced with fresh media and then compounds were added to obtain a concentrations of 10 μM. Sunitinib was used as positive control. Plates were incubated for 48 h at 37° C. in a humidified incubator with 5% CO2. After 48 hours without removing the cell culture supernatant, 500 μl of cold 10% (wt/vol) TCA was added to each well, and the plates were incubated at 4° C. for 1 h. The plates were washed for four times with water then rinsed with water several times to remove TCA, serum, proteins and excess water was removed using paper towels and air dried. 100 μl of 0.4% (wt/vol in 1% acetic acid) SRB solution was added to each well. Plates were left at room temperature for 30 min and then the plates were quickly rinsed for four times with 1% (vol/vol) acetic acid to remove unbound dye were and then air dried until no moisture was visible. 100 μl of 10 mM Tris base solution (pH 10.5) was added to each well and shake for 5 min to solubilize the protein-bound dye. Optical density was measured at 564 nm in a micro plate reader.

The next data set relates to MCF-7 cells. The data set is described as follows: SRB assay, cell viability. The class given is cell-based. As to conditions: Homo sapiens, MCF7, 48 h, average of three experiments. Here is the method: as §1, §2
In another data set the test system is MDA-MB-231 cells. Kind of data set: SRB assay, cell viability. As to conditions: Homo sapiens, 48 h, average of three experiments. It counts as cell-based. Here is the method:
as §1, §2

In another data set the test system is HeLa cells. Kind of data set: SRB assay, cell viability. It counts as cell-based. As to conditions: Homo sapiens, 48 h, average of three experiments. Here is the method:
as §1, §2

Data set [1] relates to VEGF tyrosin kinase (VEGFR). The data set is described as follows: VEGFR activity, phosphotyrosine (PY) cell-based ELISA. The following applies: 10 μM, 60 min pretreatment, VEGF stimulation. Here is the method:
Briefly, cells at 60-75% confluence were placed in serum-free medium for 18 h to reduce the background of phosphorylation. Cells were then pretreated for 60 min with 2b, 3d, 3e, 3g, 3h, 3i, 3j and 3k compounds at 10 μM concentration followed by an optimized dose of purified growth factor (VEGF). The reaction was stopped, and cells were permeabilized by quickly removing the media from the cells and adding ice-cold Tris-buffered saline (TBS) containing 0.05% triton X-100, protease inhibitor cocktail, and tyrosine phosphatase inhibitor cocktail (both from Sigma Chemical). The TBS solution was then removed, and cells were fixed to the plate by heat and further incubation in 70% ethanol. Cells were further exposed to block (TBS with 1% BSA) and washed, and then a horseradish peroxidase (HRP)-conjugated phosphotyrosine antibody was added. The antibody was removed; cells were washed again and exposed to an enhanced luminol ELISA substrate, and light emission was measured using a plate reader. The known RTK-specific kinase inhibitor (Sunitinib) was used as positive control for kinase inhibition.

The subject of data set [2] is THP1 cells. It counts as cell-based, human. As to conditions: THP-1 cells, 10 μM, 24 h; untreated cells 68.3%. Here is the method: To understand the anticancer activity mechanism of the synthesized oxindole derivatives, we analysed the cell cycle alteration phase distribution of the cells by treating THP1 cells with oxindole derivatives at 10 μM, for 24 h and analyzed by flow cytometry. Treatment of THP-1 cells with compounds 2b, 3d, 3e, 3g, 3h, 3i, 3j and 3k caused an accumulation of 98.5%, 94.3%, 96.7%, 97%, 98%, 83%, 93.5%, 98.1% cells in the G0/G1 phase respectively as compared to 68.3% in untreated cells and 99.5% in Sunitinib treated cells. […] (Fig. x and Table .y).
The THP1 cells were treated with the active compounds at […] and incubated for about 24 h. The cells were fixed in ice cold ethanol solvent at 4° C. for about 30 minutes. The ethanol was removed and cells were treated with 1 mL of DNA staining solution (2 mg of RNase and 0.2 mg of propidium iodide (PI)) for 30 minutes. The DNA content was measured by flow cytometry (BD FACS C anto II). Results were analysed using FCS express 4 plus software.

Data set [3] concerns THP1 cells. The data set is described as follows: Trypan blue assay, cell viability. The class given is cell-based. As to conditions: Homo sapiens, THP-1, 48 h, average of three experiments. Here is the method:
as §1
The assay was carried out in a 24 well flat-bottomed microtiter tissue culture plate. THP1 cells were seeded in the plates with a density of 4×10^4 cells/well (counted by tryphan blue exclusion dye method). Compounds were added to obtain a concentration of 10 μM. Sunitinib was used as positive control. Plates were incubated for 48 h at 37° C. in a humidified incubator with 5% CO2. At the end of the treatments, cells (THP1) were resuspended in 0.4% trypan blue and percent cell viability was counted using countess cell chamber (Life Technologies).

In the case of `Cc1ccsc1/C=C1\C(=O)Nc2cc3oc(Cc4ccccc4)c(-c4ccccc4)c3cc21` [Compound 3i, (Z)-2-benzyl-5-((3-methylthiophen-2-yl)methylene)-3-phenyl-5H-furo[3,2-f]indol-6(7H)-one], the melting point lay in the range of 165 to 168 °C. For the same compound, the viability at 10 µM in the data set on DU-145 cells turned out to be 52%. For the same compound, the viability at 10 µM in the data set on MCF-7 cells came to 31.4%. For the same compound, the viability at 10 µM with MDA-MB-231 cells was determined as 43.2%. Further, in the data set on HeLa cells, the viability at 10 µM was 42.6%. For the same compound, in data set [1], the “inhibitory activity of VEGF tyrosin kinase activity” value was “inhibitory activity”. Also, in the data set with THP1 cells [2], the “accumulation of cells in the G0/G1 phase” value was 83%. In addition, the viability at 10 µM in the data set on THP1 cells [3] came to 41.2%.
Compound `COc1cccc(C(C#CCOCc2ccccc2)c2cc3c(cc2O)NC(=O)C3)c1OC` (stereo not drawn) [Compound 2b, 5-(4-(Benzyloxy)-1-(2,3-dimethoxyphenyl)but-2-ynyl)-6-hydroxyindolin-2-one] yielded a melting point of 177 to 179 °C. In addition, in the data set with DU-145 cells, the viability at 10 µM stood at 51.2%. In addition, in the data set with MCF-7 cells, the viability at 10 µM is 39.8%. Moreover, in the data set with MDA-MB-231 cells, the viability at 10 µM came out at 42.8%. In the data set with HeLa cells, the viability at 10 µM is 40.4%. The “inhibitory activity of VEGF tyrosin kinase activity” value in data set [1] is “inhibitory activity”. The “accumulation of cells in the G0/G1 phase” value with THP1 cells [2] came to 98.5%. Also, the viability at 10 µM with THP1 cells [3] was found to be 48.5%.
On to `CN(C)c1ccc(/C=C2\C(=O)Nc3cc4oc(Cc5ccccc5)c(-c5ccccc5)c4cc32)c2ccccc12` [Compound 3j, (Z)-2-benzyl-5-((4-(dimethylamino)naphthalen-1-yl)methylene)-3-phenyl-5H-furo[3,2-f]indol-6(7H)-one], for which the melting point lay within 241 to 245 °C. In addition, in the data set on DU-145 cells, the viability at 10 µM amounted to 45.2%. For the same compound, the viability at 10 µM with MCF-7 cells amounted to 37.8%. Also, the viability at 10 µM in the data set with MDA-MB-231 cells amounted to 71.3%. For the same compound, the viability at 10 µM with HeLa cells was 107%. The “inhibitory activity of VEGF tyrosin kinase activity” value in data set [1] is “inhibitory activity”. The “accumulation of cells in the G0/G1 phase” value with THP1 cells [2] amounted to 93.5%. The viability at 10 µM in the data set on THP1 cells [3] came to 83.3%.
In the case of `COc1cccc(-c2c(CCOCc3ccccc3)oc3cc4c(cc23)CC(=O)N4)c1OC` [Compound 3b, 2-(2-(Benzyloxy)ethyl)-3-(2,3-dimethoxyphenyl)-5H-furo [3,2-f] indol-6(7H)-one], the melting point fell in the range of 120 to 122 °C. In addition, the viability at 10 µM with DU-145 cells turned out to be 69.2%. In the data set on MCF-7 cells, the viability at 10 µM worked out at 49.3%. Further, the viability at 10 µM with MDA-MB-231 cells turned out to be 72.5%. In the data set with HeLa cells, the viability at 10 µM was determined as 40.5%. In the data set with THP1 cells [3], the viability at 10 µM is 75.5%.
As for `COc1cccc(-c2c(COCc3ccccc3)oc3cc4c(cc23)/C(=C/c2sccc2C)C(=O)N4)c1OC` [Compound 3l, (Z)-2-((benzyloxy)methyl)-3-(2,3-dimethoxyphenyl)-5-((3-methylthiophen-2-yl)methylene)-5H-furo[3,2-f]indol-6(7H)-one], the viability at 10 µM with DU-145 cells was 49.7%; with MCF-7 cells it was 79%; with MDA-MB-231 cells it was 111%; in the data set on HeLa cells, 52%; in the data set with THP1 cells [3] it was 106%.
With `COc1cccc(C(C#CCOCc2ccccc2)c2cc3c(cc2O)NC(=O)/C3=C\c2[nH]c(C)cc2C)c1OC` (stereo not drawn) [Compound 3f], the melting point is 181 to 183 °C. The viability at 10 µM with DU-145 cells is 62.1%. The viability at 10 µM in the data set with MCF-7 cells was found to be 33.1%. Besides, in the data set on MDA-MB-231 cells, the viability at 10 µM turned out to be 37.7%. Moreover, in the data set on HeLa cells, the viability at 10 µM was 39.4%. The viability at 10 µM in the data set with THP1 cells [3] was found to be 30.2%.
Compound `O=C1Cc2cc(C(C#Cc3ccccc3)c3ccccc3)c(O)cc2N1` (stereo not drawn) [Compound 2a, 5-(1,3-Diphenylprop-2-yn-1-yl)-6-hydroxyindolin-2-one] displayed a melting point of 195 to 196 °C. Also, in the data set with DU-145 cells, the viability at 10 µM came to 41.7%. The viability at 10 µM in the data set with MCF-7 cells turned out to be 39.7%. Besides, in the data set on MDA-MB-231 cells, the viability at 10 µM came out at 71.3%. Moreover, the viability at 10 µM with HeLa cells was 36.6%. Also, in the data set with THP1 cells [3], the viability at 10 µM was 34.5%.
With `CCN(CC)CCNC(=O)c1c(C)[nH]c(/C=C2\C(=O)Nc3ccc(F)cc32)c1C` [SUNT, Sunitinib, reference compound], the viability at 10 µM turned out to be 35% in the data set on DU-145 cells; 34.3% in the data set with MCF-7 cells; 39.5% in the data set with MDA-MB-231 cells; 37.1% in the data set with HeLa cells; 35.2% with THP1 cells [3]. For the same compound, the “accumulation of cells in the G0/G1 phase” value with THP1 cells [2] was 99.5%.
As to `O=C1Cc2cc3c(-c4ccccc4)c(Cc4ccccc4)oc3cc2N1` [Compound 3a, 2-Benzyl-3-phenyl-5H-furo[3,2-f]indol-6(7H)-one], the melting point was 196 to 198 °C. Also, in the data set with DU-145 cells, the viability at 10 µM was determined as 21.7%. Besides, the viability at 10 µM with MCF-7 cells was 51.1%. Moreover, the viability at 10 µM with MDA-MB-231 cells is 53.8%. In the data set with HeLa cells, the viability at 10 µM is 27.6%. Also, the viability at 10 µM in the data set on THP1 cells [3] was found to be 53.6%.
Take `COc1cccc(-c2c(COCc3ccccc3)oc3cc4c(cc23)/C(=C/c2[nH]c(C)cc2C)C(=O)N4)c1OC` [Compound 3k, (Z)-2-((benzyloxy)methyl)-3-(2,3-dimethoxyphenyl)-5-((3,5-dimethyl-1H-pyrrol-2-yl)methylene)-5H-furo[3,2-f]indol-6(7H)-one]: the viability at 10 µM in the data set with DU-145 cells stood at 62.7%; in the data set with MCF-7 cells it was 43.1%; in the data set with MDA-MB-231 cells it was 109%; in the data set with HeLa cells, 38.9%; in the data set on THP1 cells [3] it was 80.5%. The “inhibitory activity of VEGF tyrosin kinase activity” value in data set [1] was “inhibitory activity”. The “accumulation of cells in the G0/G1 phase” value in the data set on THP1 cells [2] was found to be 98.1%.
Regarding `Cc1ccc(S(=O)(=O)n2cc(-c3c(Cc4ccccc4)oc4cc5c(cc34)/C(=C/c3[nH]c(C)cc3C)C(=O)N5)c3ccccc32)cc1` [Compound 3m, (Z)-2-benzyl-5-((3,5-dimethyl-1H-pyrrol-2-yl)methylene)-3-(1-tosyl-1H-indol-3-yl)-5H-furo[3,2-f]indol-6(7H)-one], the melting point lay in the range of 174 to 176 °C. Moreover, in the data set with DU-145 cells, the viability at 10 µM came out at 91.7%. The viability at 10 µM with MCF-7 cells came to 71.4%. In the data set on MDA-MB-231 cells, the viability at 10 µM came out at 75.5%. Further, the viability at 10 µM in the data set on HeLa cells was found to be 87.6%. For the same compound, in the data set with THP1 cells [3], the viability at 10 µM worked out at 68.2%.
In turn, `Cc1cc(C)c(/C=C2\C(=O)Nc3cc(O)c(C(C#Cc4ccccc4)c4ccccc4)cc32)[nH]1` (stereo not drawn) [Compound 3c, (Z)-3-((3,5-dimethyl-1H-pyrrol-2-yl)methylene)-5-(1,3-diphenylprop-2-yn-1-yl)-6-hydroxyindolin-2-one] showed a melting point of 173 to 179 °C. Besides, in the data set with DU-145 cells, the viability at 10 µM stood at 81.3%. Moreover, the viability at 10 µM with MCF-7 cells is 49.9%. Besides, the viability at 10 µM in the data set with MDA-MB-231 cells came to 74.5%. In the data set on HeLa cells, the viability at 10 µM amounted to 78.2%. Also, in the data set with THP1 cells [3], the viability at 10 µM was found to be 125%.
